# According to US20240067668A1, “HETEROARYL DERIVATIVE COMPOUND AND USE THEREOF” (VORONOI INC., priority 2020, published 2024):
# Columns and labels:
# EGFR Del19/T790M/C797S = EGFR Del19/T790M/C797S (Homo sapiens, UniProt P00533, C797S/T790M, form not given); test: Enzyme IC50, EGFR Del19/T790M/C797S; type: biochemical
# [1] = system: BaF3-EGFR (Del19/T790M/C797S) cells; test: Inhibitory activity on Ba/F3 cell proliferation (CellTiter-Glo, 72 hours); type: cell-based; details: Ba/F3 cells expressing EGFR Del19/T790M/C797S
# Procedure: (§1) The following experiments were performed to evaluate the inhibitory activity of the compound represented by Chemical Formula 1 according to the present invention on the proliferation of Ba/F3 cells expressing EGFR mutants.
# (§2) BaF3-EGFR (WT) and BaF3-EGFR (Del19/T790M/C797S) cells were seeded in a clear bottom white 96-well plate at a density of 3×10^3/100 μl/well, and then 0.5 μl/well of the culture medium, containing the compounds at 12 concentrations (0.00001-2 mM) serially diluted in 3 folds and the DMSO control, was added to a final concentration of 0.00005-10 μM, followed by culturing in a 37° C. CO2 incubator for 72 hours. After 72 hours, the plates treated with the compounds were taken out, treated with 100 μl/well of CellTiter-Glo® 2.0 Assay (Promega) solution, and mixed well. After mixing well at room temperature for about 10 minutes, […] was measured using a microplate reader. As to Data, GI50 (μM) values were calculated using GraphPad Prism 8.3.0 (GraphPad software Inc., San Diego) as percentages in proportion to vehicle-based treated cells. The result values were calculated as a cell growth rate (%) compared to the control group. A graph was created using the GraphPad Prism version 5.0 program, and GI50 (μM) values were calculated.
# BaF3-EGFR (WT) cells = test: as above; type: cell-based; details: Ba/F3 cells expressing EGFR WT
# Procedure: as §1, §2
# Chain of EGFR Del19/T790M/C797S (P00533 25-1210 T790M/C797S, form open): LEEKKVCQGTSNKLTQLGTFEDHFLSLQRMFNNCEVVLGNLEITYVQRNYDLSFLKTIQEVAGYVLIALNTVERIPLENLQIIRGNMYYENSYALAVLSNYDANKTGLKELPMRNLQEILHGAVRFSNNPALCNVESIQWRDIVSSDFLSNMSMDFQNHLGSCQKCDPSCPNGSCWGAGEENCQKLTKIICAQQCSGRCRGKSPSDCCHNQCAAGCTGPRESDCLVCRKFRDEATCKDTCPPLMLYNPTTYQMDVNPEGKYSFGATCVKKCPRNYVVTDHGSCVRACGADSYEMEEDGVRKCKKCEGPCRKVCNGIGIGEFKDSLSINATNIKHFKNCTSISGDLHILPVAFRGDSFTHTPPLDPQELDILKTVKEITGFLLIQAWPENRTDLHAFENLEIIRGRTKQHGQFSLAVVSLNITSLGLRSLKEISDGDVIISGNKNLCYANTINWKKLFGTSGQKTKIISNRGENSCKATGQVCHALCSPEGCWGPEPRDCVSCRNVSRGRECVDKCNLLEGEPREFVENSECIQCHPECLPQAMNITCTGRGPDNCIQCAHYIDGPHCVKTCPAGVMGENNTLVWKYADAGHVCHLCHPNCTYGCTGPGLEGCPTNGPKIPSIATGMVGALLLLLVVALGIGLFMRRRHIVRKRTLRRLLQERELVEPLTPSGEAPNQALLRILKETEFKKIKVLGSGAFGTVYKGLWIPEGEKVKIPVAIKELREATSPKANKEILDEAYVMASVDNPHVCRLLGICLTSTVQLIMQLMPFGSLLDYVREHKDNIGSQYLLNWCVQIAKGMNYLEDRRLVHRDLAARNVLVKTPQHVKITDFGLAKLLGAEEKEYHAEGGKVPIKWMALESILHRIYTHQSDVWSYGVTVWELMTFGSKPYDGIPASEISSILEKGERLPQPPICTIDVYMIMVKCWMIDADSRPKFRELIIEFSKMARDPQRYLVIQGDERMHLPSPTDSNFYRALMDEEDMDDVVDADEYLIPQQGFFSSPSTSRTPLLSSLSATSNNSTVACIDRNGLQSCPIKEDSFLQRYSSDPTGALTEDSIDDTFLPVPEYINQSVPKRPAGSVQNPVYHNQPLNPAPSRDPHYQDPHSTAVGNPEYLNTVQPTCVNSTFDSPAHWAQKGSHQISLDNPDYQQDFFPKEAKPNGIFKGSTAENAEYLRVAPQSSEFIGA
SMILES,IC50 (EGFR Del19/T790M/C797S) [µM],GI50 [1] [µM],GI50 (BaF3-EGFR (WT) cells) [µM]
"COc1cc(N2CCC(N3CCN(C4CC4)CC3)CC2)c(C)cc1Nc1nc(Nc2ccc3nccnc3c2P(C)(C)=O)c2cc[nH]c2n1 [Example 60, (6-((2-((4-(4-(4-cyclopropyl-piperazin-1-yl)piperidin-1-yl)-2-methoxy-5-methylphenyl)amino)-7H-pyrrolo[2,3-d]pyrimidin-4-yl)amino)quinoxalin-5-yl)dimethyl-phosphine oxide]",≤ 0.05,≤ 0.05,> 0.1
"CCN1CCN(c2cc(OC)c(Nc3nc(Nc4ccc5nccnc5c4P(C)(C)=O)c4cc[nH]c4n3)cc2-c2cnn(C(C)C)c2)CC1 [Example 48, (6-((2-((4-(4-ethylpiperazin-1-yl)-5-(1-isopropyl-1H-pyrazol-4-yl)-2-methoxyphenyl)amino)-7H-pyrrolo[2,3-d]pyrimidin-4-yl)amino)quinoxalin-5-yl)dimethyl-phosphine oxide]",≤ 0.05,> 0.1,> 0.1
"COc1cc(N2C[C@H]3COC[C@H]3C2)c(-c2cnn(C)c2)cc1Nc1nc(Nc2ccc3nccnc3c2P(C)(C)=O)c2cc[nH]c2n1 [Example 41, (6-((2-((2-methoxy-5-(1-methyl-1H-pyrazol-4-yl)-4-((3aR,6aS)-tetrahydro-1H-furo[3,4-c]pyrrole-5(3H)-yl)phenyl)amino)-7H-pyrrolo[2,3-d]pyrimidin-4-yl)amino)quinoxalin-5-yl)dimethyl-phosphine oxide]",≤ 0.05,≤ 0.05,> 0.1
"COc1cc(N2CCN(C)CC2)c(C2CC2)cc1Nc1nc(Nc2ccc3nccnc3c2P(C)(C)=O)c2cc[nH]c2n1 [Example 83, (6-((2-((5-cyclopropyl-2-methoxy-4-(4-methylpiperazin-1-yl)phenyl)amino)-7H-pyrrolo[2,3-d]pyrimidin-4-yl)amino)quinoxalin-5-yl)dimethyl-phosphine oxide]",≤ 0.05,> 0.1,> 0.1
"C=CC(=O)Nc1cc(Nc2nc(Nc3ccc4nccnc4c3P(C)(C)=O)c3cc[nH]c3n2)c(OC)cc1N1CCN(C)CC1 [Example 73, N-(5-((4-((5-(dimethyl-phosphoryl)quinoxalin-6-yl)amino)-7H-pyrrolo[2,3-d]pyrimidin-2-yl)amino)-4-methoxy-2-(4-methylpiperazin-1-yl)phenyl) acrylamide]",≤ 0.05,> 0.1,0.05 to 0.1
"COc1cc(N(C)CCN(C)C)c(-c2cnn(C)c2)cc1Nc1nc(Nc2ccc3nccnc3c2P(C)(C)=O)c2cc[nH]c2n1 [Example 36, (6-((2-((4-((2-(dimethylamino)ethyl) (methyl)amino)-2-methoxy-5-(1-methyl-1H-pyrazol-4-yl)phenyl)amino)-7H-pyrrolo[2,3-d]pyrimidin-4-yl)amino)quinoxalin-5-yl)dimethyl-phosphine oxide]",≤ 0.05,≤ 0.05,> 0.1
"COc1cc(N2CCN(C3CCCC3)CC2)c(-c2cnn(C)c2)cc1Nc1nc(Nc2ccc3nccnc3c2P(C)(C)=O)c2cc[nH]c2n1 [Example 22, (6-((2-((4-(4-cyclopentyl-piperazin-1-yl)-2-methoxy-5-(1-methyl-1H-pyrazol-4-yl)phenyl)amino)-7H-pyrrolo[2,3-d]pyrimidin-4-yl)amino)quinoxalin-5-yl) dimethyl-phosphine oxide]",≤ 0.05,≤ 0.05,> 0.1
"COc1cc(N2CCN(C)CC2)c(-c2cnn(C3CC3)c2)cc1Nc1nc(Nc2ccc3nccnc3c2P(C)(C)=O)c2cc[nH]c2n1 [Example 115, (6-((2-((5-(1-cyclopropyl-1H-pyrazol-4-yl)-2-methoxy-4-(4-methylpiperazin-1-yl)phenyl)amino)-7H-pyrrolo[2,3-d]pyrimidin-4-yl)amino)quinoxalin-5-yl)dimethyl-phosphine oxide]",≤ 0.05,0.05 to 0.1,> 0.1
"COc1cc(N2CCN(C(=O)C3(F)CC3)CC2)c(-c2cnn(C)c2)cc1Nc1nc(Nc2ccc3nccnc3c2P(C)(C)=O)c2cc[nH]c2n1 [Example 112, (4-(4-((4-((5-(dimethyl-phosphoryl)quinoxalin-6-yl)amino)-7H-pyrrolo[2,3-d]pyrimidin-2-yl)amino)-5-methoxy-2-(1-methyl-1H-pyrazol-4-yl)phenyl)piperazin-1-yl)(1-fluorocyclo-propyl) methanone]",0.05 to 0.1,≤ 0.05,> 0.1

# Now from value to molecule:
IC50 (EGFR Del19/T790M/C797S) [µM],GI50 [1] [µM],GI50 (BaF3-EGFR (WT) cells) [µM],SMILES
≤ 0.05,≤ 0.05,> 0.1,"COc1cc(OCCN(C)C)c(-c2cnn(C)c2)cc1Nc1nc(Nc2ccc3nccnc3c2P(C)(C)=O)c2cc[nH]c2n1 [Example 35, (6-((2-((4-(2-(dimethylamino)ethoxy)-2-methoxy-5-(1-methyl-1H-pyrazol-4-yl)phenyl)amino)-7H-pyrrolo[2,3-d]pyrimidin-4-yl)amino)quinoxalin-5-yl)dimethyl-phosphine oxide]"
≤ 0.05,> 0.1,0.05 to 0.1,"CP(C)(=O)c1c(Nc2nc(Nc3cc([N+](=O)[O-])c(N4CCC(N5CCN(C6CC6)CC5)CC4)c4c3OCCO4)nc3[nH]ccc23)ccc2nccnc12 [Example 134, (6-((2-((8-(4-(4-cyclopropyl-piperazin-1-yl)piperidin-1-yl)-7-nitro-2,3-dihydrobenzo [b][1,4]dioxin-5-yl)amino)-7H-pyrrolo[2,3-d]pyrimidin-4-yl)amino)quinoxalin-5-yl)dimethyl-phosphine oxide]"
≤ 0.05,≤ 0.05,> 0.1,"CN1CCN(C2CCN(c3c(-c4cnn(C)c4)cc(Nc4nc(Nc5ccc6nccnc6c5P(C)(C)=O)c5cc[nH]c5n4)c4c3CCO4)CC2)CC1 [Example 117, dimethyl (6-((2-((5-(1-methyl-1H-pyrazol-4-yl)-4-(4-(4-methylpiperazin-1-yl)piperidin-1-yl)-2,3-dihydrobenzo-furan-7-yl)amino)-7H-pyrrolo[2,3-d]pyrimidin-4-yl)amino)quinoxalin-5-yl)phosphine oxide]"
≤ 0.05,> 0.1,> 0.1,"COc1ccc(C)cc1Nc1nc(Nc2ccc3nccnc3c2P(C)(C)=O)c2cc[nH]c2n1 [Example 68, (6-((2-((2-methoxy-5-methylphenyl)amino)-7H-pyrrolo[2,3-d]pyrimidin-4-yl)amino)quinoxalin-5-yl)dimethyl-phosphine oxide]"
≤ 0.05,> 0.1,> 0.1,"Cc1cc(Nc2nc(Nc3cnc4ccccc4c3P(C)(C)=O)c3cc[nH]c3n2)c(OCC(F)(F)F)cc1N1CCC(N2CCN(C)CC2)CC1 [Example 13, dimethyl (3-((2-((5-methyl-4-(4-(4-methylpiperazin-1-yl)piperidin-1-yl)-2-(2,2,2-trifluoroethoxy)phenyl)amino)-7H-pyrrolo[2,3-d]pyrimidin-4-yl)amino)quinolin-4-yl)phosphine oxide]"
≤ 0.05,≤ 0.05,> 0.1,"COc1cc(N2CCOCC2)c(-c2cnn(C)c2)cc1Nc1nc(Nc2ccc3nccnc3c2P(C)(C)=O)c2cc[nH]c2n1 [Example 25, (6-((2-((2-methoxy-5-(1-methyl-1H-pyrazol-4-yl)-4-morpholino-phenyl)amino)-7H-pyrrolo[2,3-d]pyrimidin-4-yl)amino)quinoxalin-5-yl)dimethyl-phosphine oxide]"
≤ 0.05,> 0.1,> 0.1,"Cn1ncc(Nc2nc(Nc3ccc4nccnc4c3P(C)(C)=O)c3cc[nH]c3n2)c1Cl [Example 137, (6-((2-((5-chloro-1-methyl-1H-pyrazol-4-yl)amino)-7H-pyrrolo[2,3-d]pyrimidin-4-yl)amino)quinoxalin-5-yl)dimethyl-phosphine oxide]"
≤ 0.05,> 0.1,> 0.1,"COc1cc(N2CCN(C)CC2)c(C#N)cc1Nc1nc(Nc2ccc3nccnc3c2P(C)(C)=O)c2cc[nH]c2n1 [Example 81, 5-((4-((5-(dimethyl-phosphoryl)quinoxalin-6-yl)amino)-7H-pyrrolo[2,3-d]pyrimidin-2-yl)amino)-4-methoxy-2-(4-methylpiperazin-1-yl)benzonitrile]"
≤ 0.05,≤ 0.05,> 0.1,"COc1cc(N2C[C@H]3CC[C@@H](C2)O3)c(-c2cnn(C)c2)cc1Nc1nc(Nc2ccc3nccnc3c2P(C)(C)=O)c2cc[nH]c2n1 [Example 30, (6-((2-((4-((1R,5S)-8-oxa-3-azabicyclo [3.2.1]octan-3-yl)-2-methoxy-5-(1-methyl-1H-pyrazol-4-yl)phenyl)amino)-7H-pyrrolo[2,3-d]pyrimidin-4-yl)amino)quinoxalin-5-yl)dimethyl-phosphine oxide]"
≤ 0.05,> 0.1,> 0.1,"COc1cc(N2CC3(CCOCC3)C2)c(-c2cnn(C)c2)cc1Nc1nc(Nc2ccc3nccnc3c2P(C)(C)=O)c2cc[nH]c2n1 [Example 33, (6-((2-((2-methoxy-5-(1-methyl-1H-pyrazol-4-yl)-4-(7-oxa-2-azaspiro[3.5]nonane-2-yl)phenyl)amino)-7H-pyrrolo[2,3-d]pyrimidin-4-yl)amino)quinoxalin-5-yl)dimethyl-phosphine oxide]"
